This is an account of results in patent publication US20240217957A1, “HETEROCYCLIC COMPOUND AND USE THEREOF” (TAKEDA PHARMACEUTICAL COMPANY LIMITED, priority 2022, published 2024).

In this experiment the target is T1, human OX2 receptor (Homo sapiens, UniProt O43614).
T1 construct: expressed in transfected cells
T1 sequence (O43614 1-444): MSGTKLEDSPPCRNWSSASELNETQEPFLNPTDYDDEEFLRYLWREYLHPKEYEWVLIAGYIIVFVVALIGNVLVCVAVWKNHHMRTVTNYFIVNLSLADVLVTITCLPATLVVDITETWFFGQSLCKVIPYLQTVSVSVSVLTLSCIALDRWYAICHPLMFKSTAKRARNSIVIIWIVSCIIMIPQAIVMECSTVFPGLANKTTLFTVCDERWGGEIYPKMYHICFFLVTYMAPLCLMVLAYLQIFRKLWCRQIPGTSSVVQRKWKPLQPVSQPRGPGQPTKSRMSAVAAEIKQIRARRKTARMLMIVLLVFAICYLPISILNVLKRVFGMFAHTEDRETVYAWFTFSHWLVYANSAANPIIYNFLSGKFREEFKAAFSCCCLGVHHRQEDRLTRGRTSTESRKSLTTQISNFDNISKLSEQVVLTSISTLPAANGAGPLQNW
Briefly: Measurement of orexin type 2 receptor agonist activity (calcium fluorescence, Fluo-4 AM, FDSS). The settings on record: compound at 3 μM; CHO cells forcibly expressing human OX2 receptor; DMSO = 0%, 10 nM orexin A (human) = 100%. Type of experiment: cell-based. The method, boiled down: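 Agonist response is expressed as % of the fluorescence change given by 10 nM human orexin A, with DMSO as 0%, read over 1 min 40 s on FDSS after compound addition. Cells: stable human OX2 (1-444) CHO-K1 clones, dye-loaded with Fluo-4 AM plus probenecid in HEPES-buffered HBSS with 0.1% BSA.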

In the case of `Cc1cnc([C@@H]2CC(N3C[C@@H](NS(C)(=O)=O)C(F)(F)C3)=NO2)c(-c2c(F)ccc(F)c2F)c1` [Example 54, N-[(3R)-4,4-difluoro-1-{5-[5-methyl-3-(2,3,6-trifluorophenyl)pyridin-2-yl]-4,5-dihydro-1,2-oxazol-3-yl}pyrrolidin-3-yl]methanesulfonamide], the “OX2R agonist activity (3 μM, %)” value was determined as 92%.

Take `Cc1cnc([C@@H]2CC(N3C[C@@H](NS(=O)(=O)C4CC4)C(F)(F)C3)=NO2)c(-c2c(F)cc(F)cc2F)c1` [Example 55, N-[(3R)-4,4-difluoro-1-{(5S)-5-[5-methyl-3-(2,4,6-trifluorophenyl)pyridin-2-yl]-4,5-dihydro-1,2-oxazol-3-yl}pyrrolidin-3-yl]cyclopropanesulfonamide]: the “OX2R agonist activity (3 μM, %)” value amounted to 104%.

Turning to `Cc1cnc([C@@H]2CC(N3CC[C@H](NS(=O)(=O)CF)C3)=NO2)c(-c2c(F)cc(F)cc2F)c1` [Example 56, 1-fluoro-N-[(3S)-1-{(5S)-5-[5-methyl-3-(2,4,6-trifluorophenyl)pyridin-2-yl]-4,5-dihydro-1,2-oxazol-3-yl}pyrrolidin-3-yl]methanesulfonamide], the “OX2R agonist activity (3 μM, %)” value was determined as 92%.

With `Cc1cnc([C@@H]2CC(N3C[C@H](F)[C@H](NS(C)(=O)=O)C3)=NO2)c(-c2c(F)cc(F)cc2F)c1` [Example 57, N-[(3R,4S)-4-fluoro-1-{(5S)-5-[5-methyl-3-(2,4,6-trifluorophenyl)pyridin-2-yl]-4,5-dihydro-1,2-oxazol-3-yl}pyrrolidin-3-yl]methanesulfonamide], the “OX2R agonist activity (3 μM, %)” value is 105%.

Regarding `Cc1cnc([C@@H]2CC(N3C[C@@H](NS(=O)(=O)CF)C(F)(F)C3)=NO2)c(-c2c(F)cc(F)cc2F)c1` [Example 58, N-[(3R)-4,4-difluoro-1-{(5S)-5-[5-methyl-3-(2,4,6-trifluorophenyl)pyridin-2-yl]-4,5-dihydro-1,2-oxazol-3-yl}pyrrolidin-3-yl]-1-fluoromethanesulfonamide], the “OX2R agonist activity (3 μM, %)” value is on record as 103%.

`Cc1cnc(C2(C(F)F)CC(N3C[C@@H](NS(C)(=O)=O)C(F)(F)C3)=NO2)c(-c2c(F)cccc2F)c1` (stereo partly drawn) [Example 59, N-[(3R)-1-{5-(difluoromethyl)-5-[3-(2,6-difluorophenyl)-5-methylpyridin-2-yl]-4,5-dihydro-1,2-oxazol-3-yl}-4,4-difluoropyrrolidin-3-yl]methanesulfonamide]: the “OX2R agonist activity (3 μM, %)” value is 101%.

Regarding `Cc1cnc([C@@H]2CC(N3C[C@@H](NS(=O)(=O)C(F)F)C(F)(F)C3)=NO2)c(-c2c(F)cc(F)cc2F)c1` [Example 60, N-[(3R)-4,4-difluoro-1-{(5S)-5-[5-methyl-3-(2,4,6-trifluorophenyl)pyridin-2-yl]-4,5-dihydro-1,2-oxazol-3-yl}pyrrolidin-3-yl]-1,1-difluoromethanesulfonamide], the “OX2R agonist activity (3 μM, %)” value was determined as 105%.

On to `Cc1cnc(C2CC(N3C[C@@H](NS(C)(=O)=O)C(F)(F)C3)=NO2)c(-c2c(F)cccc2Cl)c1` (stereo partly drawn) [Example 61, N-[(3R)-1-{5-[3-(2-chloro-6-fluorophenyl)-5-methylpyridin-2-yl]-4,5-dihydro-1,2-oxazol-3-yl}-4,4-difluoropyrrolidin-3-yl]methanesulfonamide], for which the “OX2R agonist activity (3 μM, %)” value amounted to 98%.

In the case of `Cc1cnc([C@@H]2CC(N3C[C@@H](C)[C@H](NS(C)(=O)=O)C3)=NO2)c(-c2c(F)cc(F)cc2F)c1` [Example 63, N-[(3S,4R)-4-methyl-1-{(5S)-5-[5-methyl-3-(2,4,6-trifluorophenyl)pyridin-2-yl]-4,5-dihydro-1,2-oxazol-3-yl}pyrrolidin-3-yl]methanesulfonamide], the “OX2R agonist activity (3 μM, %)” value worked out at 101%.

As for `Cc1cnc([C@@H]2CC(N3CC(F)(F)C(C)(NS(C)(=O)=O)C3)=NO2)c(-c2c(F)cc(F)cc2F)c1` (stereo partly drawn) [Example 64, N-(4,4-difluoro-3-methyl-1-{(5S)-5-[5-methyl-3-(2,4,6-trifluorophenyl)pyridin-2-yl]-4,5-dihydro-1,2-oxazol-3-yl}pyrrolidin-3-yl)methanesulfonamide], the “OX2R agonist activity (3 μM, %)” value was determined as 100%.

Take `Cc1cnc([C@@H]2CC(N3C[C@@H](F)[C@H](NS(=O)(=O)CF)C3)=NO2)c(-c2c(F)cccc2F)c1` [Example 65, N-[(3R,4R)-1-{(5S)-5-[3-(2,6-difluorophenyl)-5-methylpyridin-2-yl]-4,5-dihydro-1,2-oxazol-3-yl}-4-fluoropyrrolidin-3-yl]-1-fluoromethanesulfonamide]: the “OX2R agonist activity (3 μM, %)” value is given as 97%.

With `Cc1cnc([C@@H]2CC(N3CC[C@H](NS(=O)(=O)C(F)F)C3)=NO2)c(-c2c(F)cc(F)cc2F)c1` [Example 66, 1,1-difluoro-N-[(3S)-1-{(5S)-5-[5-methyl-3-(2,4,6-trifluorophenyl)pyridin-2-yl]-4,5-dihydro-1,2-oxazol-3-yl}pyrrolidin-3-yl]methanesulfonamide], the “OX2R agonist activity (3 μM, %)” value is 99%.

Turning to `O=S(=O)(N[C@@H]1CN(C2=NOC(c3ncc(F)cc3-c3c(F)cccc3F)C2)CC1(F)F)C1CC1` (stereo partly drawn) [Example 67, N-[(3R)-1-{5-[3-(2,6-difluorophenyl)-5-fluoropyridin-2-yl]-4,5-dihydro-1,2-oxazol-3-yl}-4,4-difluoropyrrolidin-3-yl]cyclopropanesulfonamide], the “OX2R agonist activity (3 μM, %)” value is 98%.

`Cc1cnc([C@@H]2CC(N3C[C@H](F)[C@H](NS(=O)(=O)CF)C3)=NO2)c(-c2c(F)cccc2F)c1` [Example 68, N-[(3R,4S)-1-{(5S)-5-[3-(2,6-difluorophenyl)-5-methylpyridin-2-yl]-4,5-dihydro-1,2-oxazol-3-yl}-4-fluoropyrrolidin-3-yl]-1-fluoromethanesulfonamide]: the “OX2R agonist activity (3 μM, %)” value came to 104%.

For the molecule `CS(=O)(=O)N[C@@H]1CN(C2=NOC(c3ncc(F)cc3-c3c(F)cccc3F)C2)CC1(F)F` (stereo partly drawn) [Example 69, N-[(3R)-1-{5-[3-(2,6-difluorophenyl)-5-fluoropyridin-2-yl]-4,5-dihydro-1,2-oxazol-3-yl}-4,4-difluoropyrrolidin-3-yl]methanesulfonamide], the “OX2R agonist activity (3 μM, %)” value came to 95%.

`CS(=O)(=O)N[C@@H]1CN(C2=NOC(c3ncc(F)cc3-c3c(F)cc(F)cc3F)C2)CC1(F)F` (stereo partly drawn) [Example 70, N-[(3R)-4,4-difluoro-1-{5-[5-fluoro-3-(2,4,6-trifluorophenyl)pyridin-2-yl]-4,5-dihydro-1,2-oxazol-3-yl}pyrrolidin-3-yl]methanesulfonamide]: the “OX2R agonist activity (3 μM, %)” value is listed as 94%.

For the molecule `COCC1(NS(C)(=O)=O)CCN(C2=NO[C@H](c3ncc(C)cc3-c3c(F)cccc3F)C2)C1` (stereo partly drawn) [Example 73, N-[1-{(5S)-5-[3-(2,6-difluorophenyl)-5-methylpyridin-2-yl]-4,5-dihydro-1,2-oxazol-3-yl}-3-(methoxymethyl)pyrrolidin-3-yl]methanesulfonamide], the “OX2R agonist activity (3 μM, %)” value was 102%.

For `Cc1cnc([C@@H]2CC(O[C@H]3C[C@H](NS(C)(=O)=O)C3)=NO2)c(-c2c(F)cc(F)cc2F)c1` [Example 74, N-[(1s,3r)-3-({(5S)-5-[5-methyl-3-(2,4,6-trifluorophenyl)pyridin-2-yl]-4,5-dihydro-1,2-oxazol-3-yl}oxy)cyclobutyl]methanesulfonamide], the “OX2R agonist activity (3 μM, %)” value stood at 58%.

Take `Cc1cnc(C2(C)CC(N3C[C@@H](NS(C)(=O)=O)C(F)(F)C3)=NO2)c(-c2c(F)cccc2F)c1` (stereo partly drawn) [Example 76, N-[(3R)-1-{5-[3-(2,6-difluorophenyl)-5-methylpyridin-2-yl]-5-methyl-4,5-dihydro-1,2-oxazol-3-yl}-4,4-difluoropyrrolidin-3-yl]methanesulfonamide]: the “OX2R agonist activity (3 μM, %)” value worked out at 108%.

On to `Cc1cnc([C@@H]2CC(N3C[C@@H](F)[C@H](NS(=O)(=O)N(C)C)C3)=NO2)c(-c2c(F)cc(F)cc2F)c1` [Example 77, N′-[(3R,4R)-4-fluoro-1-{(5S)-5-[5-methyl-3-(2,4,6-trifluorophenyl)pyridin-2-yl]-4,5-dihydro-1,2-oxazol-3-yl}pyrrolidin-3-yl]-N,N-dimethylsulfuric diamide], for which the “OX2R agonist activity (3 μM, %)” value is listed as 102%.

Consider `Cc1cnc([C@@H]2CC(N3C[C@@H](F)[C@H](NS(=O)(=O)N(C)C)C3)=NO2)c(-c2c(F)cccc2F)c1` [Example 78, N′-[(3R,4R)-1-{(5S)-5-[3-(2,6-difluorophenyl)-5-methylpyridin-2-yl]-4,5-dihydro-1,2-oxazol-3-yl}-4-fluoropyrrolidin-3-yl]-N,N-dimethylsulfuric diamide], for which the “OX2R agonist activity (3 μM, %)” value turned out to be 102%.

For `Cc1cnc([C@@H]2CC(N3C[C@H](F)[C@H](NS(=O)(=O)N(C)C)C3)=NO2)c(-c2c(F)cccc2F)c1` [Example 79, N′-[(3R,4S)-1-{(5S)-5-[3-(2,6-difluorophenyl)-5-methylpyridin-2-yl]-4,5-dihydro-1,2-oxazol-3-yl}-4-fluoropyrrolidin-3-yl]-N,N-dimethylsulfuric diamide], the “OX2R agonist activity (3 μM, %)” value was 100%.

Take `CS(=O)(=O)N[C@@H]1CN(C2=NOC(c3ncc(Cl)cc3-c3c(F)cccc3F)C2)C[C@@H]1F` (stereo partly drawn) [Example 80, N-[(3R,4S)-1-{5-[5-chloro-3-(2,6-difluorophenyl)pyridin-2-yl]-4,5-dihydro-1,2-oxazol-3-yl}-4-fluoropyrrolidin-3-yl]methanesulfonamide]: the “OX2R agonist activity (3 μM, %)” value is on record as 97%.
